Test results: patent EP1077981B1, “NOVEL CEPHALOSPORIN COMPOUNDS, PROCESSES FOR PREPARATION THEREOF AND ANTIMICROBIAL COMPOSITIONS CONTAINING THE SAME” (LG CHEMICAL LIMITED, priority 1998, dated 1999)
Values after ≈ are worked out from the molar mass of the structure shown. Read-outs that look alike come from different tables or passages of the source.

Legend:
S. pneumoniae = experiment: MIC against standard strains (agar dilution); type: cell-based; conditions: Streptococcus pneumoniae, Mueller-Hinton agar, 10^7 cfu/mℓ, 20 hours at 37°C
Procedure: (§1) Test example 1: Measurement of Minimum Inhibitory Concentration (MIC)
(§2) Specifically, test compounds were diluted by 2-fold dilution method and dispersed in Mueller-Hinton agar medium and then, 2µℓ of test strains were inoculated at a concentration of 10^7 cfu(colony forming unit)/mℓ on the medium and incubated for 20 hours at 37°C.

S. aureus = experiment: MIC against standard strains (agar dilution); type: cell-based; conditions: Staphylococcus aureus, Mueller-Hinton agar, 10^7 cfu/mℓ, 20 hours at 37°C
Procedure: as §1, §2

E. coli = experiment: MIC against standard strains (agar dilution); type: cell-based; conditions: Escherichia coli, Mueller-Hinton agar, 10^7 cfu/mℓ, 20 hours at 37°C
Procedure: as §1, §2

P. vulgaris = experiment: MIC against standard strains (agar dilution); type: cell-based; conditions: Proteus vulgaris, Mueller-Hinton agar, 10^7 cfu/mℓ, 20 hours at 37°C
Procedure: as §1, §2

H. influenzae = experiment: MIC against standard strains (agar dilution); type: cell-based; conditions: Haemophilus influenzae
Procedure: as §1, §2

[1] = Pharmacokinetic experiment (blood concentration by HPLC); type: in vivo, mice; conditions: mice, 20mg/kg; for AUC / half-life: male, mouse, blood
Procedure: Test example 2: Pharmacokinetic experiment
Male mice, each of which has a body weight of […] were used in the present pharmacokinetic experiment. Test compounds were formulated into 1% of solution and then, the solution was administered by oral route and by injection with a dose of 20mg/kg, respectively. At the fixed interval of time after administration, blood was gathered from the mice. Concentrations of test compounds in blood were measured by HPLC quantitative analysis and based on the results, pharmacokinetic parameters were calculated.

Row | SMILES | MIC (S. pneumoniae) [mg/L] | MIC (S. aureus) [mg/L] | MIC (E. coli) [mg/L] | MIC (P. vulgaris) [mg/L] | MIC (H. influenzae; H. influenzae, Mueller-Hinton agar, 10^7 cfu/mℓ, 20 hours at 37°C, read-out: MIC) [mg/L] | AUC ([1]; intravenous, Injection) [µg·h/mL] | half-life ([1]; intravenous, Injection) [h] | AUC ([1]; Oral administration) [µg·h/mL] | half-life ([1]; Oral administration) [h] | half-life ([1]; intravenous injection) [h] | maximum conc. ([1]; Oral administration) [µg/mL] | MIC (H. influenzae; 20 h) [mg/L]
1 | C=CC1=C(C(=O)O)N2C(=O)[C@@H](NC(=O)/C(=N\O)c3csc(N)n3)[C@H]2SC1 [Cefdinir, reference compound] | 4 (≈ 10.1 µM) | 0.031 (≈ 0.0784 µM) | 0.016 (≈ 0.0405 µM) | 0.031 (≈ 0.0784 µM) | 0.25 (≈ 0.632 µM) | 50 | 0.35 | 6.38 | 1.23 | 0.35 | 2.9 | –
2 | Nc1cc(SCSC2=C(C(=O)O)N3C(=O)C(NC(=O)/C(=N\O)c4nc(N)sc4Cl)C3SC2)nc(N)n1 (centres unmarked) [compound 7, 7-[(Z)-2-(2-amino-5-chloro-thiazol-4-yl)-2-hydroxyimino-acetylamino]-3-(2,6-diamino-pyrimidin-4-ylsulfanylmethylsulfanyl)-8-oxo-5-thia-1-aza-bicyclo[4,2,0]oct-2-ene-2-carboxylic acid] | 0.25 (≈ 0.424 µM) | 0.13 (≈ 0.22 µM) | 0.25 (≈ 0.424 µM) | 0.25 (≈ 0.424 µM) | – | 107 | 2.32 | 59.9 | 2.8 | – | 13.8 | 0.13 (≈ 0.22 µM)
3 | CO/N=C(\C(=O)NC1C(=O)N2C(C(=O)O)=C(SCc3cc(N)nc(N)n3)CSC12)c1csc(N)n1 (centres unmarked) [compound 20, 7-[(Z)-2-(2-amino-1,3-thiazol-4-yl)-2-methoxyimino-acetylamino]-3-(2,4-diaminopyrimidin-6-ylmethylsulfanyl)-8-oxo-5-t hia-1-aza-bicyclo[4,2,0]oct-2-ene-2-carboxylic acid] | 2 (≈ 3.72 µM) | 2 (≈ 3.72 µM) | 0.031 (≈ 0.0577 µM) | 0.016 (≈ 0.0298 µM) | – | – | – | – | – | – | – | 0.031 (≈ 0.0577 µM)
